Measured values published in patent US4097595A, “7-Amino-thiazolyl acetamido cephalosporanic acids” (Roussel Uclaf, priority 1976, dated 1978).
Values after ≈ are worked out from the molar mass of the structure shown. Like-named read-outs stand apart in the source and are kept apart here.

Columns and labels:
[1] = tested on: Streptococcus hemolyticus; experiment: MIC, dilution method in liquid media, Streptococcus hemolyticus; format: cell-based; conditions: Streptococcus pyogenes
Experimental: (§1) A series of tubes were prepared with the same quantity of sterile nutrive media and increasing quantities of the test product was distributed to each tube. Then, each tube was seeded with a bacterial strain and after incubation at 37° C for 24 or 48 hours, the inhibition of the growth was determined by transillumination which permitted determination of the minimum inhibitory concentrations (M.I.C.) in μg/ml.

[2] = tested on: Escherichia Coli UC 1 020; experiment: MIC, dilution method in liquid media, Escherichia Coli UC 1 020; format: cell-based
Experimental: as §1

[3] = tested on: staphylococcus aureus 54,146; experiment: In vivo activity, experimental staphylococcia in mice; conditions: for Mice living after 8th day: subcutaneous, 1, 5 and 24 hours after infection
Experimental: The antibacterial activity of the compound of Example 2 was determined against experimental staphylococcia in mice. Lots of 10 male mice weighing about 21.5 g were infected by intraperitoneal injection of 0.5 ml of a 24 hour culture of staphylococcus aureus 54,146 in Pasteur nutritive broth diluted by 1/5 with distilled water. The test product was administered subcutaneously 1 hour, 5 hours and 24 hours after the infection in different doses.

[4] = tested on: Staphylococcus aureus UC 1128 (penicillin resistant); experiment: MIC, dilution method in liquid media, Staphylococcus aureus UC 1128, penicillin resistant; format: cell-based
Experimental: as §1

[5] = tested on: Escherichia Coli UC 1 261; experiment: MIC, dilution method in liquid media, Escherichia Coli UC 1 261; format: cell-based
Experimental: as §1

[6] = tested on: Staphylococcus aureus 54 146; experiment: MIC, dilution method in liquid media, Staphylococcus aureus 54 146; format: cell-based; conditions: read-out: MIC
Experimental: as §1

[7] = tested on: Proteus mirabilis (indol); experiment: MIC, dilution method in liquid media, Proteus mirabilis (indol); format: cell-based
Experimental: as §1

[8] = tested on: Klebsiella pneumoniae 52 145; experiment: MIC, dilution method in liquid media, Klebsiella pneumoniae 52 145; format: cell-based; conditions: read-out: MIC
Experimental: as §1

[9] = tested on: Proteus mirabilis No. A 235; experiment: In vivo activity, experimental infection of Proteus mirabilis in mice; conditions: for Mice living on 8th day: subcutaneous, 1, 5 and 24 hours after infection, controls 0/10; for Mortality after 21 h 15: subcutaneous, number of dead of 10 mice, controls 10
Experimental: The product of Example 2 was studied for its effect on an experimental infection of Proteus mirabilis in mice. Groups of 10 male mice weighing about 22.5 g were infected by an intraperitoneal injection of 0.5 ml of a 24 hour culture in Pasteur nutritive media of Proteus mirabilis No. A 235 diluted by 1/4 with distilled water.
The mice received a subcutaneous injection 1 hour, 5 hours and 24 hours after the infection of a quantity of the product of Example 2 and the mortality was noted during 8 days.

[10] = tested on: Streptococcus faecalis 5 432; experiment: MIC, dilution method in liquid media, Streptococcus faecalis 5 432; format: cell-based
Experimental: as §1

[11] = tested on: Escherichia Coli (T) 026B6; experiment: Experimental infection with Escherichia Coli (T) 026B6 in mice; format: in vivo; conditions: for Mice living on 8th day: subcutaneous, 1, 5 and 24 hours after infection, control 0/10
Experimental: Again, the activity of the product of Example 2 was tested against experimental infection of Escherichia Coli in mice. Groups of 10 male mice weighing about 23 g were infected with an intraperitoneal injection of 0.5 ml of a 24 hour culture in Pasteur nutritive media of Escherichia Coli (T) 026B6 diluted by 1/6 with distilled water. The test product was administered subcutaneously one hour, five hours and 24 hours after the infection and the mortality was determined during 8 days.

[12] = tested on: Staphylococcus aureus UC 1 061 (penicillin sensible); experiment: MIC, dilution method in liquid media, Staphylococcus aureus UC 1061, penicillin sensible; format: cell-based
Experimental: as §1

Bacillus subtilis = experiment: MIC, dilution method in liquid media, Bacillus subtilis; format: cell-based
Experimental: as §1

[13] = tested on: Escherichia Coli (T) 0 26 B 6; experiment: MIC, dilution method in liquid media, Escherichia Coli (T) 026 B6; format: cell-based
Experimental: as §1

[14] = tested on: Streptococcus pyogenes A 561; experiment: MIC, dilution method in liquid media, Streptococcus pyogenes A 561; format: cell-based
Experimental: as §1

[15] = tested on: Escherichia Coli R 55 123 D; experiment: MIC, dilution method in liquid media, Escherichia Coli R 55 123 D; format: cell-based; conditions: COLIR55123D
Experimental: as §1

Salmonella Typhimurium = experiment: MIC, dilution method in liquid media, Salmonella Typhimurium; format: cell-based; conditions: Salmonella enterica, strain 420 (Tables II, IV)
Experimental: as §1

[16] = 0.1 mg in each injection, subcutaneous, number of dead of 10 mice
[17] = 0.25 mg in each injection, subcutaneous, number of dead of 10 mice
[18] = 0.5 mg in each injection, subcutaneous, number of dead of 10 mice
[19] = Staphylococcus aureus, 54146, 24 h
[20] = Staphylococcus aureus, 54146, 48 h
[21] = Klebsiella pneumoniae, 52145, 24 h
[22] = Klebsiella pneumoniae, 52145, 48 h
[23] = Enterococcus faecalis, 5432, 24 h, read-out: MIC

What does the source list for `CC(=O)SCC1=C(C(=O)O)N2C(=O)C(NC(=O)Cc3csc(N)n3)[C@H]2SC1` (some centres unmarked) [Example 2, 7-[2-(2-amino-4-thiazolyl)-acetamido]-3-acetylthiomethyl-ceph-3-eme-4-carboxylic acid]?
MIC ([1]; 24 h): 0.05 µg/mL (≈ 0.117 µM); MIC ([1]; 48 H, in bacto Todd Hewitt Broth pH = 7.8, read-out: MIC): 0.1 µg/mL (≈ 0.233 µM); MIC ([2]; UC1, 24 h, read-out: MIC): 2 µg/mL (≈ 4.67 µM); MIC ([2]; UC1, 48 h, read-out: MIC): 5 µg/mL (≈ 11.7 µM); Mice living after 8th day ([3]; 0.1 mg in each injection): 0/10; Mortality after 9 h 45 [3, 16]: 1; Mortality after 22 h 30 [3, 16]: 8; Mortality after 29 h [3, 16]: 1; Mice living after 8th day ([3]; 0.25 mg in each injection): 6/10; Mortality after 22 h 30 [3, 17]: 1; Mortality after 25 h 30 [3, 17]: 1; Mortality after 4 d [3, 17]: 1; Mortality after 5 d [3, 17]: 1; Mice living after 8th day ([3]; 0.5 mg in each injection): 9/10; Mortality after 4 d [3, 18]: 1; Mice living after 8th day ([3]; 0.75 mg in each injection): 10/10; Mice living after 8th day ([3]; 1 mg in each injection): 10/10; MIC ([4]; UC1128, 24 H): 1 µg/mL (≈ 2.33 µM); MIC ([4]; UC1128, 48 H): 1 µg/mL (≈ 2.33 µM); MIC ([5]; UC1, 24 h): 1 µg/mL (≈ 2.33 µM); MIC ([5]; UC1, 48 h): 1 µg/mL (≈ 2.33 µM); MIC [6, 19]: 0.6 µg/mL (≈ 1.4 µM); MIC [6, 20]: 0.6 µg/mL (≈ 1.4 µM); MIC ([7]; 24 h, read-out: MIC): 1 µg/mL (≈ 2.33 µM); MIC ([7]; 48 h, read-out: MIC): 1 µg/mL (≈ 2.33 µM); MIC [8, 21]: 0.5 µg/mL (≈ 1.17 µM); MIC [8, 22]: 0.5 µg/mL (≈ 1.17 µM); Mice living on 8th day ([9]; 0.1 mg in each injection): 8/10; Mortality after 21 h 15 ([9]; 0.1 mg in each injection): 2; Mice living on 8th day ([9]; 0.25 mg in each injection): 10/10; Mortality after 21 h 15 ([9]; 0.25 mg in each injection): 0; Mice living on 8th day ([9]; 0.5 mg in each injection): 10/10; Mortality after 21 h 15 ([9]; 0.5 mg in each injection): 0; Mice living on 8th day ([9]; 0.75 mg in each injection): 10/10; Mortality after 21 h 15 ([9]; 0.75 mg in each injection): 0; MIC [10, 23]: 5 µg/mL (≈ 11.7 µM); MIC ([10]; Enterococcus faecalis, 5432, 48 h, read-out: MIC): > 40 µg/mL; Mice living on 8th day ([11]; 0.5 mg in each injection): 0/10; Mortality at 21 h 15 [11, 18]: 6; Mortality at 24 h 15 [11, 18]: 1; Mortality at 27 h 45 [11, 18]: 1; Mortality at 45 h 30 [11, 18]: 1; Mortality at 70 h [11, 18]: 1; Mice living on 8th day ([11]; 1 mg in each injection): 9/10; Mortality at 30 h 45 ([11]; 1 mg in each injection, subcutaneous, number of dead of 10 mice): 1; MIC ([12]; 24 H, Staphylococcus Oxford UC 1061, penicillin sensible): 0.5 µg/mL (≈ 1.17 µM); MIC ([12]; 48 H, Staphylococcus Oxford UC 1061, penicillin sensible): 0.5 µg/mL (≈ 1.17 µM); MIC (Bacillus subtilis; 24 h, read-out: MIC): 0.1 µg/mL (≈ 0.233 µM); MIC (Bacillus subtilis; 48 h, read-out: MIC): 0.5 µg/mL (≈ 1.17 µM); MIC ([13]; 24 h): 3 µg/mL (≈ 7 µM); MIC ([13]; 48 h): 3 µg/mL (≈ 7 µM)

Which results are given for `Nc1nc(CC(=O)NC2C(=O)N3C(C(=O)O)=C(CSC(=O)c4csc(=O)[nH]4)CSC23)cs1` (centres unmarked) [Example 4, 7-[2-(2-amino-4-thiazolyl)-acetamido]-3-[{(2-oxo-(3H)-thiazolin-4-yl)-carbonyl}-thiomethyl]-ceph-3-eme-4-carboxylic acid]?
MIC ([2]; UC1, 24 h): 2 µg/mL (≈ 3.89 µM); MIC ([2]; UC1, 48 h): 2 µg/mL (≈ 3.89 µM); MIC ([4]; UC1128, 24 H): 1 µg/mL (≈ 1.95 µM); MIC ([4]; UC1128, 48 H): 1 µg/mL (≈ 1.95 µM); MIC ([14]; A561, 24 h): 0.1 µg/mL (≈ 0.195 µM); MIC ([14]; A561, 48 h): 0.2 µg/mL (≈ 0.389 µM); MIC ([5]; UC1, 24 h, read-out: MIC): 1 µg/mL (≈ 1.95 µM); MIC ([5]; UC1, 48 h, read-out: MIC): 1 µg/mL (≈ 1.95 µM); MIC [6, 19]: 0.5 µg/mL (≈ 0.974 µM); MIC [6, 20]: 1 µg/mL (≈ 1.95 µM); MIC ([15]; 24 h): 5 µg/mL (≈ 9.74 µM); MIC ([15]; 48 h, read-out: MIC): 10 µg/mL (≈ 19.5 µM); MIC ([7]; 24 H, A 235, read-out: MIC): 0.6 µg/mL (≈ 1.17 µM); MIC ([7]; 48 H, A 235, read-out: MIC): 0.6 µg/mL (≈ 1.17 µM); MIC [8, 21]: 0.1 µg/mL (≈ 0.195 µM); MIC [8, 22]: 0.2 µg/mL (≈ 0.389 µM); MIC [10, 23]: 10 µg/mL (≈ 19.5 µM); MIC ([10]; Enterococcus faecalis, 5432, 48 h): > 40 µg/mL; MIC (Salmonella Typhimurium; 24 H): 3 µg/mL (≈ 5.84 µM); MIC (Salmonella Typhimurium; 48 H): 3 µg/mL (≈ 5.84 µM); MIC ([12]; UC1, 24 H, penicillin sensible): 0.2 µg/mL (≈ 0.389 µM); MIC ([12]; UC1, 48 H, penicillin sensible): 0.5 µg/mL (≈ 0.974 µM); MIC (Bacillus subtilis; 24 h, read-out: MIC): 0.1 µg/mL (≈ 0.195 µM); MIC (Bacillus subtilis; 48 h): 0.1 µg/mL (≈ 0.195 µM); MIC ([13]; 24 h): 2 µg/mL (≈ 3.89 µM); MIC ([13]; 48 h): 3 µg/mL (≈ 5.84 µM)
